Laboratory results taken from PubChem BioAssay (NCI).
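1) Cells in 96-well plates. 2) Compound, 48 h, 5 concentrations. 3) Linear interpolation between surrounding doses. 4) Unreached endpoint = highest concentration. GI50 marks 50% less growth. TGI: concentration producing complete growth inhibition.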

Assays:
Experiment in all cases: NCI tumour cell line growth inhibition, 48 h
SK-MEL-5 melanoma = tested on: SK-MEL-5 melanoma
SR leukemia = tested on: SR leukemia
K-562 leukemia = tested on: K-562 leukemia
HOP-62 NSCLC = tested on: HOP-62 NSCLC
M14 melanoma = tested on: M14 melanoma
SK-MEL-28 melanoma = tested on: SK-MEL-28 melanoma
ACHN renal = tested on: ACHN renal
TK-10 renal = tested on: TK-10 renal
MALME-3M melanoma = tested on: MALME-3M melanoma
T-47D breast = tested on: T-47D breast

SMILES | GI50 (SK-MEL-5 melanoma) [µM] | TGI (SK-MEL-5 melanoma) [µM] | GI50 (SR leukemia) [µM] | TGI (SR leukemia) [µM] | GI50 (K-562 leukemia) [µM] | TGI (K-562 leukemia) [µM] | GI50 (HOP-62 NSCLC) [µM] | TGI (HOP-62 NSCLC) [µM] | GI50 (M14 melanoma) [µM] | TGI (M14 melanoma) [µM] | GI50 (SK-MEL-28 melanoma) [µM] | TGI (SK-MEL-28 melanoma) [µM] | GI50 (ACHN renal) [µM] | TGI (ACHN renal) [µM] | TGI (TK-10 renal) [µM] | TGI (MALME-3M melanoma) [µM] | GI50 (T-47D breast) [µM] | TGI (T-47D breast) [µM] | GI50 (TK-10 renal) [µM] | GI50 (MALME-3M melanoma) [µM]
CC(C)[P+](c1ccccc1)(c1ccccc1)c1ccccc1 | 2.22 | 7.9 | 3.05 | > 100 | 2.4 | > 100 | 19 | > 100 | 11.2 | > 100 | 21.2 | > 100 | 86.8 | > 100 | – | – | – | – | – | –
Cc1cc(=O)[nH]c(NNC(C#N)c2ccccc2O)n1 (configuration not stated) | – | 75.9 | – | > 100 | – | > 100 | – | 99.8 | – | – | – | > 100 | – | 90.8 | > 100 | > 100 | – | – | – | –
CC12OC(C(=O)C13CC3)C1C(=O)c3c(O)ccc(O)c3C(=O)C12 (configuration not stated) | – | – | – | – | 13.8 | 34.6 | 21.3 | 60.5 | 15.3 | 30.2 | 24.6 | 78.7 | 3.54 | 15.2 | 35.2 | 30.5 | 11.6 | 32 | 15.6 | 13.7
COc1cc(C2c3cc4c(cc3OC(O)C2C)OCO4)cc(OC)c1OC (configuration not stated) | – | 9.98 | – | – | – | 41.1 | – | > 100 | – | 30.2 | – | > 100 | – | > 88.1 | > 100 | 73.2 | – | – | – | –
Cc1ccc(N2C(=O)/C(=C/c3ccc(N(CCC#N)CCC#N)cc3)N=C2COc2ccc(Cl)cc2Cl)cc1 | – | > 100 | – | > 100 | – | > 100 | – | > 100 | – | > 100 | – | > 100 | – | > 100 | > 100 | > 100 | – | – | – | –
O=C1C(Cl)=C(Cl)C(=O)N1c1ccc(Cl)c(Cl)c1Cl | – | > 100 | – | 68 | – | 91.8 | – | > 100 | – | > 100 | – | > 100 | – | > 100 | > 100 | > 100 | – | – | – | –
OCCCCC#Cc1ccccc1C#Cc1cccnc1 | 54.8 | > 100 | – | – | 23.9 | 71.1 | 20 | 57.4 | 23.4 | 75.4 | 23.7 | > 100 | 28.3 | > 100 | 80.6 | 92.2 | 34.7 | > 100 | 26.9 | 37.8
Brc1cc(C2OCCCO2)ccc1OCc1ccccc1 | – | 71.4 | – | – | – | > 100 | – | > 100 | – | > 100 | – | > 100 | – | > 100 | > 100 | > 100 | – | – | – | –
CCOC(=O)c1sc2c(C(=O)OCC)n3cc(C)cc(C)c3c2c1O | – | > 100 | – | > 100 | – | > 100 | – | – | – | > 100 | – | > 100 | – | > 100 | > 100 | > 100 | – | – | – | –
CCCC(O)c1cn(-c2cccc(S(=O)(=O)O)c2)nn1 (configuration not stated) | – | > 100 | – | – | – | > 100 | – | > 100 | – | > 100 | – | > 100 | – | > 100 | > 100 | > 100 | – | – | – | –
COc1ccc(Br)c(CN2CCc3ccccc32)c1OS(=O)(=O)c1ccc(C)cc1 | – | – | – | > 100 | – | > 100 | – | – | – | > 100 | – | > 100 | – | > 100 | – | > 100 | – | – | – | –
